Experimental data as given in PubChem BioAssay AID1996.
≈ marks a conversion by molar mass, not a printed value.

Settings: buffer; pH 7.4; 200.0 µM

| SMILES | solubility kinetic [µg/mL] |
| --- | --- |
| COc1ccc(C(=O)Nc2ccc(C(=O)Nc3cccnc3)cc2)cc1 | 0.6 (≈ 1.73 µM) |
| CCOC(=O)/C(N=Nc1ccc(C(=O)O)cc1[N+](=O)[O-])=C(\C)O | > 48.5 |
| CCOC(=O)c1nc(Nc2ccccc2C)c2ccccc2n1 | > 46.1 |
| O=C1CCCC2=C1C(c1ccsc1)CC(=O)N2c1ccccc1F (stereo not given) | > 51.2 |
| Cc1cc(C)nc(SC/C=C/c2ccccc2)n1.Cl | 5.4 |
| NC(=O)C1CCN(c2ccc([N+](=O)[O-])cc2Cl)CC1 | 3.3 (≈ 11.6 µM) |
| COC(=O)c1ccc(N)nc1 | > 22.8 |
| CC(Oc1ccc([N+](=O)[O-])cc1)C(=O)NCC1CCCO1 (stereo not given) | > 44.1 |
| O=C(COC(=O)c1ccc2ncsc2c1)Nc1ccccc1Cl | 4 (≈ 11.5 µM) |
| CC(NC(=O)CN1C(=O)c2ccccc2C1=O)c1ccccc1 (stereo not given) | 8.4 (≈ 27.2 µM) |
| COc1ccc(C2CC(=O)N(c3ccccc3)C3=C2C(=O)CCC3)cc1 (stereo not given) | 48.9 (≈ 141 µM) |
| COC(=O)c1ccc(NS(=O)(=O)c2ccc(S(=O)(=O)N3CCOCC3)cc2)cc1 | > 66.1 |
| COc1ccccc1CNc1ccc(Br)cn1 | 11.6 (≈ 39.6 µM) |
| COc1ccccc1Nc1nc(NCCO)nc(N)c1[N+](=O)[O-] | 3.4 (≈ 10.6 µM) |
| Cc1ccc(C)c(N2C(=O)CC(Cc3ccc(Cl)cc3)C2=O)c1 (stereo not given) | 17.6 (≈ 53.7 µM) |
| CCOC(=O)N1CCN(S(=O)(=O)c2ccc(C)cc2)C1 | 38 (≈ 127 µM) |
| COc1ccc([N+](=O)[O-])cc1Nc1c2ccccc2nc2ccccc12 | < 0.2 |
| COc1ccccc1NC(=O)CCNC(=O)c1ccc(C)cc1 | > 46.9 |
| O=C(COC(=O)c1cccc(OC(F)F)c1)Nc1cccc(S(=O)(=O)N2CCCC2)c1 | 10.9 (≈ 24 µM) |
| CN(CC(=O)Nc1cccc(Cl)c1)C1=NS(=O)(=O)c2ccccc21 | 3.7 (≈ 10.2 µM) |

| SMILES | solubility kinetic [µg/mL] |
| --- | --- |
| CC1Nc2ccc(C(=O)NC3CCCCC3)cc2NC1=O (stereo not given) | 19.2 (≈ 66.8 µM) |
| COc1ccc(C)cc1NC(=O)COC(=O)C1COc2ccccc2O1 (stereo not given) | > 53.6 |
| CN1CCCN(C(=O)COc2ccc(Br)cc2)CC1 | 44.7 (≈ 137 µM) |
| COc1cc2ncnc(NCc3ccco3)c2cc1OC | 38.9 (≈ 136 µM) |
| O=C1CCC(C(=O)OCC(=O)c2ccccc2)N1 (stereo not given) | > 37.1 |
| Cc1ccc(NC(=O)/C(Cl)=C\c2ccccc2)cc1 | 1.4 (≈ 5.15 µM) |
| CSC1=C(C#N)C(=O)NC(c2ccccc2O)S1 (stereo not given) | > 41.8 |
| COC(=O)[C@H](CCSC)NC(=O)Nc1cc(OC)cc(OC)c1 | > 51.4 |
| COC(=O)CCCSc1nccn1-c1ccccc1 | > 41.5 |
| c1coc(CSc2ncnc3c2oc2ccccc23)c1 | 0.9 (≈ 3.19 µM) |
| NC(=O)COC(=O)c1ccc2c(c1)C(=O)N(Cc1ccco1)C2=O | > 49.2 |
| O=[N+]([O-])c1cccc2c3c([nH]c12)CCCC3 | < 0.2 |
| COc1cc(CN2CCN(Cc3cccc(OC)c3OC)CC2)cc(OC)c1 | 47.8 (≈ 124 µM) |
| CNC(=O)COC(=O)CNC(=O)c1cc(Cl)cc([N+](=O)[O-])c1 | > 49.5 |
| CCc1ccccc1NC(=O)C1CCCC1 | 29.7 (≈ 137 µM) |
| CC(=O)N(Cc1cc(=O)[nH]c2ccccc12)c1ccccc1C | 43.6 (≈ 142 µM) |
| CCn1cnc2scc(-c3ccc(OC)cc3)c2c1=O | > 43 |
| Cc1cccc(OCC(=O)Nc2ccncc2)c1 | > 36.3 |
| CCOc1ccc(NC(=O)CNc2cccc(S(=O)(=O)N3CCCCCC3)c2)cc1OCC | 18.8 (≈ 39.5 µM) |
| CCCC1CC(C(=O)Nc2ccccc2)C(=O)O1 (stereo not given) | 33 (≈ 133 µM) |

| SMILES | solubility kinetic [µg/mL] |
| --- | --- |
| O=C(N/N=C/c1ccccc1Br)C1CC1 | > 40.1 |
| O=C(c1ccc(Cl)cc1)N1CCOc2ccccc21 | 40.3 (≈ 147 µM) |
| COc1ccccc1C1CCN(c2cc(O)ccc2[N+](=O)[O-])CC1 | 38.9 (≈ 118 µM) |
| CCc1ccc(CN2CCSCC2)cc1 | 8.5 (≈ 38.4 µM) |
| CCCC(=O)Nc1ccc2c(c1)nc(CCN1CCCCC1)n2C | > 49.3 |
| CCOc1ccc(N2C(=O)S/C(=C\c3ccc(O)c(OCC)c3)C2=O)cc1 | < 0.8 |
| Nc1cccc(-c2cc3ccccc3oc2=O)c1 | > 35.6 |
| O=C1CC(c2ccsc2)Sc2ccccc2N1 (stereo not given) | 33.9 (≈ 130 µM) |
| O=C(CSc1nnc(-c2ccccc2F)o1)NC1CC1 | > 44 |
| O=C(O)c1ccc2c(c1)C(=O)N(c1ccc(Nc3ccccc3)cc1)C2=O | 51.6 (≈ 144 µM) |
| O=[N+]([O-])c1ccccc1S(=O)(=O)NC1CC2CCC1C2 (stereo not given) | > 44.5 |
| O=[N+]([O-])c1ccc(S(=O)(=O)NCCc2ccncc2)cc1 | 12.8 (≈ 41.6 µM) |
| CCOC(=O)C1CCCN(CCc2ccccc2)C1 (stereo not given) | 32.1 (≈ 123 µM) |
| COc1ccc(C)cc1S(=O)(=O)NNc1nc(C)cc(C)n1 | > 48.4 |
| Cc1occc1C(=O)Nc1cccc([N+](=O)[O-])c1C | 36 (≈ 138 µM) |
| CC1=CC2=NC(=O)/C(=C/c3cccn3Cc3ccccc3)C(=N)N2O1 | 2.7 (≈ 8.12 µM) |
| O=C(O)C1CCN(C(=O)c2csc(-c3ccc4c(c3)CCO4)n2)CC1 | > 53.8 |
| COc1ccc(C(=O)NCC(=O)N2CCc3ccccc3C2)cc1 | > 48.7 |
| COc1ccc(NC(=O)CCCSc2ccccc2)cc1 | 17.2 (≈ 57.1 µM) |
| CC(C)N(Cc1ccccc1)C(=O)COC(=O)c1ccc(S(=O)(=O)N2CCOCC2)cc1 | 3.1 (≈ 6.73 µM) |
